The assay concerns the target T1, RORγ (Homo sapiens, UniProt P51449).
T1 construct: expressed in transfected cells; host or cells: HEK293
T1 sequence (P51449 1-518): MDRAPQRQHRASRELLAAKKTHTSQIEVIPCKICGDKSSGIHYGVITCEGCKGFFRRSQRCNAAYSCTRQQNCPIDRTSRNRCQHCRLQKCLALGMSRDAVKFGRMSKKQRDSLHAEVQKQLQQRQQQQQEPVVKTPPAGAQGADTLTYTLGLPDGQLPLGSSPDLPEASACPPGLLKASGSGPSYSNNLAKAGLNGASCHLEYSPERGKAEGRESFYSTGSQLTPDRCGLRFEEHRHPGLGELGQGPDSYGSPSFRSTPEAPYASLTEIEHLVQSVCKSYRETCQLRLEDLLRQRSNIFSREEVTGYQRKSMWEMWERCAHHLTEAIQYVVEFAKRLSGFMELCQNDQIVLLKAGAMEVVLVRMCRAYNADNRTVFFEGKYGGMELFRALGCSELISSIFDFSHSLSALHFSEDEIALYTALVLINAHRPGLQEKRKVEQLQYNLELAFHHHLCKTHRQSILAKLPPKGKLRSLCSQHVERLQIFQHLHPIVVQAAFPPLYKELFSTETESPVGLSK
The experiment in a line: RORγ inverse agonist reporter gene assay in HEK293. It is filed as cell-based. The conditions noted are these: new compound 43, read-out: RORγ inverse agonistic activity (IC50). A general note: Reporter assays use an easily measured gene product as a stand-in for the process of interest.

pIC50: −log10 of the molar value.

The term pIC50 denotes the IC50 on a negative log10 scale, so that one unit is a factor of ten. `O=c1[nH]c2c(Cl)cc(C(O)(C(F)(F)F)C(F)(F)F)cc2c2ccccc12` [Compound 43, 4-Chloro-2-(1,1,1,3,3,3-hexafluoro-2-hydroxypropan-2-yl)phenanthridin-6(5H)-one]: the pIC50 is under 4.70.

For the origin of these results see article PMC6073568, “Efficient Lead Finding, Activity Enhancement and Preliminary Selectivity Control of Nuclear Receptor Ligands Bearing a Phenanthridinone Skeleton” (International Journal of Molecular Sciences, 2018).
